Reference: patent US4308278A, “Anorexigenic 4-[(3,4-dialkoxyphenyl)alkyl]-2-imidazolidinone derivatives” (Gyogyszerkutato Intezet, priority 1978, dated 1981)
Structures can show the parent of a compound that is named as a salt.

How the values were obtained:
[1] = tested on: mice; conditions: oral, literature value (footnotes 1, 2, 5); cited from earlier work
[2] = acute toxicity in mice; conditions: mouse, in vivo
[3] = tested on: rats; conditions: oral, literature value (footnotes 2, 3); cited from earlier work
[4] = tested on: CFY rats; assay: anorexigenic effect in starved CFY rats (feed consumption / body weight); type: in vivo, rat; conditions: for ED50: Rattus norvegicus, rats, starved 24 h, dose halving food consumption or body weight gain vs control, read-out: ED50 orally in rats; for ED50 / Therapeutic ratio: oral; for Therapeutic ratio: LD50 and ED50 in rats
Experimental: For studying the anorexigenic effect the following method was used. CFY rats were starved for 24 hours, then the substance was orally administered, and half an hour later the animals were allowed to feed ad libitum during 5 hours when the feed consumption was measured. The change in the body weight of animals and the amount of the consumed solid, granulated food or sugar milk or peeled potato, respectively, were determined.
*ED50 is the oral dose after administration of which, following a
period of 24 hours of starvation, the rats consume the half amount of foo
as compared to control, or the oral dose after the administration of whic
the body weight gain is a half of that of control.

[5] = acute oral toxicity in rats; conditions: rat, in vivo
[6] = tested on: CFY rats; conditions: oral, literature value (footnotes 4, 5); cited from earlier work

SMILES	Acute LD50 orally in mice [1] [mg/kg]	LD50 ([2]; ip) [mg/kg]	Acute LD50 orally in rats [3] [mg/kg]	ED50 [4] [mg/kg]	Therapeutic ratio [4]	LD50 [5] [mg/kg]	ED50 orally in rats [6] [mg/kg]	LD50 ([2]; po) [mg/kg]	therapeutic ratio (comparison in words) ([4]; compared with anorexigenic drugs introduced so far)	anorexigenic effect ([4]; in words)
CCNC(C)Cc1cccc(C(F)(F)F)c1 (racemic) [Fenfluramine, DL-N-ethyl-α-methyl-3-trifluoromethylbenzeneethanamine hydrochloride]	170 to 290	100	138	7.5	20.3					
CC(C)(N)Cc1ccc(Cl)cc1.Cl [Chlorphentermine, α,α-dimethyl-4-chlorobenzeneethanamine hydrochloride]	250				30.0	375	12.5			
CC(N)Cc1ccccc1 [D-Amphetamine, D-benzeneethanamine sulphate]	60		38	5	7.6					
COc1ccc(CC2CNC(=O)N2)cc1OC1CCCC1 (stereo not drawn) [Ia, 4-[(3-cyclopentyloxy-4-methoxyphenyl)methyl]-2-imidazolidinone]		680		10.5	72.5	760		2050	more favourable than that of the best anorexigenic drugs introduced so far	much more intense than that of the anorexigenic drugs introduced so far
OC1(c2ccc(Cl)cc2)c2ccccc2C2=NCCN21 (stereo not drawn) [Mazindol, 5-(4-chlorophenyl)-2,5-dihydro-3H-imidazo[2,1-a]isoindol-5-ol]					9.7	250	25.8	106		
